Data published in publication PMC7614683, “A small molecule PI3Kα activator for cardioprotection and neuroregeneration” (Nature, 2023).

What was measured:
Test in all cases: SelectScreen LanthaScreen Binding
Conditions in all cases: 1000 nM
[1] = molecular target: AAK1 (Homo sapiens, UniProt Q2M2I8)
Description: (§1) 133 protein kinases and 7 lipid kinases were counterscreened, with 1938 used at 1 μM, using the Adapta, Lantha and Z-LYTE assays (SelectScreen Kinase Profiling Service; Thermofisher – experimental details of these assays can be found here: https://www.thermofisher.com/uk/en/home/industrial/pharma-biopharma/drug-discovery-development/target-and-lead-identification-and-validation/kinasebiology/kinase-activity-assays.html. The tree represention in KinMap[59] generated courtesy of Cell Signaling Technology, Inc. (www.cellsignal.com). mTORC1 (mTOR/RAPTOR/LST8) protein complex and ATM kinase and substrates were produced as previously described[57],[60]. Screening of 1938 was conducted using SuperSep Phos-Tag 50 μmol/l 100 x 100 x 6.6 mm 17-well (192-18001/199-18011) gels. For ATM assays, 100 nM ATM was incubated for 30 min at 30°C with 5 μM GST-p53 and 1 mM ATP, in the absence or presence of 200 μM 1938 in ATM Kinase Buffer (50 mM HEPES pH 7.5, 100 mM NaCl, 10% glycerol, 2 mM […], 5 mM MgCl2). As a positive control for ATM activation, the same reaction was carried out with 100 nM ATM/5 μM GST-p53/1 mM ATP in the presence of 100 nM Mre11-Rad50-Nbs1 (MRN) complex, a known activator of ATM[61]. For mTORC1 assays, 50 nM mTORC1 complex (mTOR/LST8/RAPTOR) was incubated for 3 h at 30°C with 15 μM 4E-BP1, 10 mM MgCl2 and 250 μM ATP, in the absence or presence of 200 μM 1938. As a ‘positive’ control, a higher concentration (150 nM) of mTORC1 complex (mTOR/LST8/RAPTOR) was incubated for 3 h at 30°C with 15 μM 4E-BP1, 10 mM MgCl2 and 250 μM ATP. Kinase reactions were quenched by addition of SDS-PAGE Loading Buffer (as per manufacturer’s instructions) and freezing at -20°C before being run on the Phos-tag gels at 150 V for 90 min. Gels were then stained using InstantBlue™ Coomassie, and quantified using BioRad Image Lab Software. Kinase assays were carried out in triplicate.

[2] = molecular target: CDK2/cyclin E1 (Homo sapiens, UniProt P24941)
Description: as §1

[3] = molecular target: CDK8/cyclin C (Homo sapiens, UniProt P49336)
Description: as §1

[4] = molecular target: T1, DYRK2 (Homo sapiens, UniProt Q92630)
T1 sequence (Q92630 1-601): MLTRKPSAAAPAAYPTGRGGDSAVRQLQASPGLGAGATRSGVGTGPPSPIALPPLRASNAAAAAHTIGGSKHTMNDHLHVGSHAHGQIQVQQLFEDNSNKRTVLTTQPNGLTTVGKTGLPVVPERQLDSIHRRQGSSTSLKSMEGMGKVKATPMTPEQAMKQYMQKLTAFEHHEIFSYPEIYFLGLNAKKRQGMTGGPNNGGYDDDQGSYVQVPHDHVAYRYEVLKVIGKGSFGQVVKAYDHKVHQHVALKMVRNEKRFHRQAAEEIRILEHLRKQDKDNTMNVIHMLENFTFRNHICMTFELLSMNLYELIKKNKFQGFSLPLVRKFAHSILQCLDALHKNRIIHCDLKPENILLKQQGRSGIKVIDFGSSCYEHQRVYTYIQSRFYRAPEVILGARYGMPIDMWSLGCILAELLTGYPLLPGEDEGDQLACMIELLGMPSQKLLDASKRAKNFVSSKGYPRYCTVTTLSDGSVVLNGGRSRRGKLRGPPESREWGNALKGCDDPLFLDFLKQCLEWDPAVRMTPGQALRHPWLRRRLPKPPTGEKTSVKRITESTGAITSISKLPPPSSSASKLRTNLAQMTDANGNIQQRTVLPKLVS
Description: as §1

[5] = molecular target: T2, MAP3K7/MAP3K7IP1 (TAK1-TAB1) (Homo sapiens, UniProt O43318)
T2 sequence (O43318 with tags, fused parts or gaps limits assumed): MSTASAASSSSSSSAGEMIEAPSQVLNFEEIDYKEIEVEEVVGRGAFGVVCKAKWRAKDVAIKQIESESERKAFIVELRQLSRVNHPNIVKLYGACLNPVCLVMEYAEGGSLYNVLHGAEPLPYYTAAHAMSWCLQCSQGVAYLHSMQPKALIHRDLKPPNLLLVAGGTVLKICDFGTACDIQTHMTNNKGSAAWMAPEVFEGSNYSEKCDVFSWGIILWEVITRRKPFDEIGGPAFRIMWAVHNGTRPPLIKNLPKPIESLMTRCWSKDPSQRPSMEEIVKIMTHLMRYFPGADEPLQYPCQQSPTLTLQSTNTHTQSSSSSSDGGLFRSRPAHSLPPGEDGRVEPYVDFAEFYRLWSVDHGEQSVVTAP
Description: as §1

[6] = molecular target: MYLK (MLCK) (Homo sapiens, UniProt Q15746)
Description: as §1

[7] = molecular target: RET V804M (Homo sapiens, UniProt P07949, V804M)
Description: as §1

[8] = molecular target: T3, STK17A (DRAK1) (Homo sapiens, UniProt Q9UEE5)
T3 sequence (Q9UEE5 1-414): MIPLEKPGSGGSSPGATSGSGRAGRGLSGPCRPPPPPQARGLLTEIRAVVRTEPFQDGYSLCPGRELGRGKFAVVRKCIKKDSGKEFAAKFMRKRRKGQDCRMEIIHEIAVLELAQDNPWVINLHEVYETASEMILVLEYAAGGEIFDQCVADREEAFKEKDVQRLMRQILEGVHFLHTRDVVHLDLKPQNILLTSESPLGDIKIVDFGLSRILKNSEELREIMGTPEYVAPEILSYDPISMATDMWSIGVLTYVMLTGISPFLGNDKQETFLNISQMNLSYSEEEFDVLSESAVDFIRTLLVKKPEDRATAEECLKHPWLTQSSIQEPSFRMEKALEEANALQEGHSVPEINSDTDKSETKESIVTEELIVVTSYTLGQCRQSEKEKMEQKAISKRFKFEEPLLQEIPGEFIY
Description: as §1

Sequence of MYLK (MLCK) (Q15746 whole entry): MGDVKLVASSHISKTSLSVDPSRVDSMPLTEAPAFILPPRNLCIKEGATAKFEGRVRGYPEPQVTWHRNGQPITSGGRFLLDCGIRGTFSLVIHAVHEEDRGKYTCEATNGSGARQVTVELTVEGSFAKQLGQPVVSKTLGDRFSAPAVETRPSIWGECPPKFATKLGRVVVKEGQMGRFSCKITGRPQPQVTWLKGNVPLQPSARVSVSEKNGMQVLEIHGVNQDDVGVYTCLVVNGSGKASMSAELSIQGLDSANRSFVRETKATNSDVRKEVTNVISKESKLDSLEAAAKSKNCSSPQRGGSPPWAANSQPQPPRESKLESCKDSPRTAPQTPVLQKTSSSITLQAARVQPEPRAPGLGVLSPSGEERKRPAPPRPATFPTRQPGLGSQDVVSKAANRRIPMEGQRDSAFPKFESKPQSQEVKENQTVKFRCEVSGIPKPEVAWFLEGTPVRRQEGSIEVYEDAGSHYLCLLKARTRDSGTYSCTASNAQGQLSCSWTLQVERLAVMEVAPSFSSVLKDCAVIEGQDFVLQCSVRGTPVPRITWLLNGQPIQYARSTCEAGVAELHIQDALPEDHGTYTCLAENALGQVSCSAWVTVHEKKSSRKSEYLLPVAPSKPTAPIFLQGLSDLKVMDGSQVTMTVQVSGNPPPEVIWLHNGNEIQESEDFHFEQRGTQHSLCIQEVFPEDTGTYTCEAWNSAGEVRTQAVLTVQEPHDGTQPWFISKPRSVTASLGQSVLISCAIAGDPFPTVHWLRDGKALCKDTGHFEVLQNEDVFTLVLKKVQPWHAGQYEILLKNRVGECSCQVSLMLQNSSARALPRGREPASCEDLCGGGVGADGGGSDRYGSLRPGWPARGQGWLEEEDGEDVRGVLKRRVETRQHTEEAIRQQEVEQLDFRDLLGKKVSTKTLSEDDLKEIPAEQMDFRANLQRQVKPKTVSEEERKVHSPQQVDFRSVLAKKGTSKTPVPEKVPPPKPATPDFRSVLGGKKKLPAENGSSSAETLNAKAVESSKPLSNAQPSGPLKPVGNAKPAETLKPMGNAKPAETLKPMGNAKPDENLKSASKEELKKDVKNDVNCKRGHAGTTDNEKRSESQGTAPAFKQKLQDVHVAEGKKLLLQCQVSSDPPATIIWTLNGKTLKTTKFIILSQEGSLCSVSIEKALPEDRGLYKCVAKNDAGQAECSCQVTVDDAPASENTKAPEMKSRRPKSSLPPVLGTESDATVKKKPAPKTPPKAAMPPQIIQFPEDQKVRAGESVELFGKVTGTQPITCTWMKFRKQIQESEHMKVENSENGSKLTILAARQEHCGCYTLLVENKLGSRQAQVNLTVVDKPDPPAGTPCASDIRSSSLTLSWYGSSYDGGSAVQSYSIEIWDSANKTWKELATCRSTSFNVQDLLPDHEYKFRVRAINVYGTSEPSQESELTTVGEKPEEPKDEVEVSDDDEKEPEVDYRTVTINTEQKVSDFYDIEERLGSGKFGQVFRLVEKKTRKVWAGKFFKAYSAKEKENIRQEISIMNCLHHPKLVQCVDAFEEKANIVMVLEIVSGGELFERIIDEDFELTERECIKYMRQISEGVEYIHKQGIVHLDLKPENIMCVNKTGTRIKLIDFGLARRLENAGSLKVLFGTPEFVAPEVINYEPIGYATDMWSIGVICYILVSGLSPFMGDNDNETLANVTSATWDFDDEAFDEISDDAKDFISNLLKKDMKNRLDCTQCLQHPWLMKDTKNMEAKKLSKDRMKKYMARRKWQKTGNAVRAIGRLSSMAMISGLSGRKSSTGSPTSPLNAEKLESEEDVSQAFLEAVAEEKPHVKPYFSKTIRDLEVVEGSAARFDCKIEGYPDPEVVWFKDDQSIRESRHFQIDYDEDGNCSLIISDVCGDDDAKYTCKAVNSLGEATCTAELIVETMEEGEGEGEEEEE
Sequence of AAK1 (Q2M2I8 whole entry): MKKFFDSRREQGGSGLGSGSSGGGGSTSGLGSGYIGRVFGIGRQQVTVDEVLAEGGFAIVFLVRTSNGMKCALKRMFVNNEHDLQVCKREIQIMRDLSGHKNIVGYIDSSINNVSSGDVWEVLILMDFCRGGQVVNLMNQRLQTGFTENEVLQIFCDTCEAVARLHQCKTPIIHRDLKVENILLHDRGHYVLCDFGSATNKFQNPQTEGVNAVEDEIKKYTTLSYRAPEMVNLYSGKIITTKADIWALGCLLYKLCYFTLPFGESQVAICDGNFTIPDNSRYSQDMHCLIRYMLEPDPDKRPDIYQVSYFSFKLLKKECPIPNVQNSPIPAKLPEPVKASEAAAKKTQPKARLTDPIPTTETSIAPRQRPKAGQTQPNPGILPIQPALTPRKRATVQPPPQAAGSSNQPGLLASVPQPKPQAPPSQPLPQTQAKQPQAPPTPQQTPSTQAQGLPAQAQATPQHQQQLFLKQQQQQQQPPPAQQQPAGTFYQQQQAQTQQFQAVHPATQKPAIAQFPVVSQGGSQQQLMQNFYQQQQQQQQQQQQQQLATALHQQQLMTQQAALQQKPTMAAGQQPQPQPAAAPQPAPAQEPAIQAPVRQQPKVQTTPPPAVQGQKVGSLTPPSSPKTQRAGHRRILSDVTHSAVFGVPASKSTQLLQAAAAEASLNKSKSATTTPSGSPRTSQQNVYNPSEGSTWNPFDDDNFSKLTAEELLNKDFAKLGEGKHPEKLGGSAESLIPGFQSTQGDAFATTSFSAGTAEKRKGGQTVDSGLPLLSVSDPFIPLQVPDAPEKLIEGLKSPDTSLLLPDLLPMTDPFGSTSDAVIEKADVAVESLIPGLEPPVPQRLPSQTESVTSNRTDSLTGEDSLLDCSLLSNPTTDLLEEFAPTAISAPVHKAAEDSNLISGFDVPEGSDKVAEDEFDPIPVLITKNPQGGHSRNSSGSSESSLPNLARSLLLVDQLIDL
Sequence of CDK8/cyclin C (P49336 whole entry): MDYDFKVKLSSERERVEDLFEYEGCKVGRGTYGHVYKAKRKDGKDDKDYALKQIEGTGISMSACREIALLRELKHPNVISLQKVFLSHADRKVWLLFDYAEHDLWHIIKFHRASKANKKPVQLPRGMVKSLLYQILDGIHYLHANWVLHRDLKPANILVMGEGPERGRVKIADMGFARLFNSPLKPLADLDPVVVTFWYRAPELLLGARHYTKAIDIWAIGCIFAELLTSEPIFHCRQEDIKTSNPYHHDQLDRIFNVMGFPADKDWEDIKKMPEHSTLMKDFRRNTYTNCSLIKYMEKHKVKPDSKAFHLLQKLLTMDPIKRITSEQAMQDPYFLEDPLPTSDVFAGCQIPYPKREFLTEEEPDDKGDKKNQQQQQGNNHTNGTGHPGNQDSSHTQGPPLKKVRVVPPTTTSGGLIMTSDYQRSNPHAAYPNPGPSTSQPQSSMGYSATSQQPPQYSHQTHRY
Sequence of CDK8/cyclin C (P24863 whole entry partner): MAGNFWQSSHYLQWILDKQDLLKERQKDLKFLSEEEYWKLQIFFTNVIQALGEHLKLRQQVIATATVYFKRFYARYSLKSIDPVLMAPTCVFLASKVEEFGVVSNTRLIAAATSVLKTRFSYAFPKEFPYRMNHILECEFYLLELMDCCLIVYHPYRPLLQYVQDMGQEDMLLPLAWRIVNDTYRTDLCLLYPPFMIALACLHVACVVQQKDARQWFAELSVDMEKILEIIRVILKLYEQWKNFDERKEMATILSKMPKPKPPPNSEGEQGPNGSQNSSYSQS
Sequence of RET V804M (P07949 29-1114 V804M): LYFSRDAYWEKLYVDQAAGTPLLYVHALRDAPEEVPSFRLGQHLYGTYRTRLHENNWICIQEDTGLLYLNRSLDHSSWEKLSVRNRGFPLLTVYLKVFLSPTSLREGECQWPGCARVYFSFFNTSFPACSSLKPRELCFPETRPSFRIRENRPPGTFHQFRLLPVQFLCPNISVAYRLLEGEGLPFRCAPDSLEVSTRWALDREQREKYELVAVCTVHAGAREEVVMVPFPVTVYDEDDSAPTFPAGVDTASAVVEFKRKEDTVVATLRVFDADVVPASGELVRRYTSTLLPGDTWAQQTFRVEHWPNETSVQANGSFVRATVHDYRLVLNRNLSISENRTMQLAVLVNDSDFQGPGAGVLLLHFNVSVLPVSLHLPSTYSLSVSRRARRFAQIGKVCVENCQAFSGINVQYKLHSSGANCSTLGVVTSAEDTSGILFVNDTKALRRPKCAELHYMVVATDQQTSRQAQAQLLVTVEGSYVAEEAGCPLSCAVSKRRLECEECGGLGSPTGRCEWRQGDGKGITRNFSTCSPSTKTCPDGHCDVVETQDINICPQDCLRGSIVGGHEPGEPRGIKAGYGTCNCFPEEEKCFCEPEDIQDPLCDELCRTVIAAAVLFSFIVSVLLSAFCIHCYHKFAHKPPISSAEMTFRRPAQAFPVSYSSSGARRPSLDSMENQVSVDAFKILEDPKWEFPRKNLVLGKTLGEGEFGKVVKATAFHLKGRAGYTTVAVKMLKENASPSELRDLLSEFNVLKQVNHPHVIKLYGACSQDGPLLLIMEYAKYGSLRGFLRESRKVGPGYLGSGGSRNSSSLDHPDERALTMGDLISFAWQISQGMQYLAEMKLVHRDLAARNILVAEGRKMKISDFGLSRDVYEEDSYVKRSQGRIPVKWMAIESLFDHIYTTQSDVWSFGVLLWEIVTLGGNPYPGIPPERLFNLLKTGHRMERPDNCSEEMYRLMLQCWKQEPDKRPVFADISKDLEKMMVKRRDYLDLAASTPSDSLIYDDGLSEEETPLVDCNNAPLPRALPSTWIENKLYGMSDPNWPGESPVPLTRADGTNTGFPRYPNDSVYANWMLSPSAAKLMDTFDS

## CCN1CCN(c2ccc(Nc3cc(Nc4cccc5c4N(C(C)=O)CC5)ccn3)cc2)CC1 [Compound 1938]
[1]
  % Displacement Point 1: 26%
  % Displacement Point 2: 25%
  % Displacement mean: 25%
[2]
  % Displacement Point 1: 3%
  % Displacement Point 2: -14%
  % Displacement mean: -5.56%
[3]
  % Displacement Point 1: -0.599%
  % Displacement Point 2: 0.85%
  % Displacement mean: 0.126%
[4]
  % Displacement Point 1: 23%
  % Displacement Point 2: 1%
  % Displacement mean: 12%
[5]
  % Displacement Point 1: 1%
  % Displacement Point 2: -0.557%
  % Displacement mean: 0.201%
[6]
  % Displacement Point 1: 1.85%
  % Displacement Point 2: 2.24%
  % Displacement mean: 2%
[7]
  % Displacement Point 1: 1.24%
  % Displacement Point 2: -3%
  % Displacement mean: -0.94%
[8]
  % Displacement Point 1: 2.26%
  % Displacement Point 2: 10%
  % Displacement mean: 6.32%
